Source: patent EP3878447A1, “BETA ADRENERGIC RECEPTOR ANTAGONISTS” (InterAx Biotech AG, priority 2020, dated 2021)
Counter-ions that a name gives are not always drawn. Like-named read-outs stand apart in the source and are kept apart here.

Assays:
B2AR [1] = biological target: T1, B2AR (Homo sapiens, UniProt P07550); test: Heterologous competition radioligand binding assay ([3H]-DHA) on SNAP-B2AR HEK membranes; details: equilibrium competition binding with 1 nM [3H]-DHA, 120 min RT, mean ± SD
B1AR = B1AR (Homo sapiens, UniProt P08588); test: Real-time cAMP inhibition assay in SNAP-B1AR-EPAC HEK cells; details: SNAP-B1AR-EPAC HEK cells stimulated with 50 nM Isoproterenol for 10 min, compound for additional 40 min, AUC of EPAC FRET ratio; mean ± SD
Chain of B1AR (P08588 whole entry): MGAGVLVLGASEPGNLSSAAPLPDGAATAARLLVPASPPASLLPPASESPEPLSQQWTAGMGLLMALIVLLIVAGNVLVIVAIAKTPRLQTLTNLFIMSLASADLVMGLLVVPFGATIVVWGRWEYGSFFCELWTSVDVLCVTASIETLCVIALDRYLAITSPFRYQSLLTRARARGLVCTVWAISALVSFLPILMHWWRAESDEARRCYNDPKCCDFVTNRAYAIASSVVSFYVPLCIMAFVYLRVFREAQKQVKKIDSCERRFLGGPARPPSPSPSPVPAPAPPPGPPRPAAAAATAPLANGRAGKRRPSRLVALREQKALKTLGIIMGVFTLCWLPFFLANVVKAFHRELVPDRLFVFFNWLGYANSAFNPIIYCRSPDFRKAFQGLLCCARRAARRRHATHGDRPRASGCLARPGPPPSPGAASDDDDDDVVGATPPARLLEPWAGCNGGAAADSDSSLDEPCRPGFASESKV

B2AR [2] = biological target: T1, B2AR
B2AR [3] = biological target: T1, B2AR; test: biochemical
B2AR [4] = biological target: T1, B2AR; test: Saturation binding of [3H]-DHA on SNAP-B2AR HEK membranes; design: membranes prepared from it; details: 5 µg SNAP-B2AR HEK membranes, specific binding; Mean ± SD, n=3; read-out: equilibrium dissociation constant (KD)

| pKi (B2AR [1]) | Ki (B2AR [2]) [nM] | Ki (B2AR [3]) [nM] | Molecule | further results |
| --- | --- | --- | --- | --- |
| 6.0 ± 0.1 | 1260 | – | 4-[2-(aminomethyl)-2,3-dihydro-1-benzofuran-7-yl]benzamide [Compound 7] | pIC50 (B1AR): 4.6 ± 0.5 |
| 5.5 ± 0.1 | 2510 | – | 5-[2-(aminomethyl)-2,3-dihydro-1-benzofuran-7-yl]pyridin-2-amine [Compound 5] | – |
| – | – | 100 to 1000 | COc1ccc(-c2cc(F)cc3c2OC(CN)C3)cn1 (stereo not drawn) [Compound 6, 1-[5-fluoro-7-(6-methoxypyridin-3-yl)-2,3-dihydro-1-benzofuran-2-yl]methanamine] | – |
| – | – | 100 to 1000 | NCC1Cc2cccc(-c3ccc(O)c(F)c3)c2O1 (stereo not drawn) [Compound 8, 4-[2-(aminomethyl)-2,3-dihydro-1-benzofuran-7-yl]-2-fluorophenol] | – |
| – | – | – | CCCc1ccccc1OC[C@@H](O)CNC(C)C [[^3H]-DHA, Dihydroalprenolol Hydrochloride, Levo-[Ring, Propyl-3H(N)]-] | Kd (B2AR [4]): 0.3 ± 0.1 nM |

| Molecule | pKi (B2AR [1]) | Ki (B2AR [2]) [nM] | Ki (B2AR [3]) [nM] | further results |
| --- | --- | --- | --- | --- |
| NCC1Cc2cccc(-c3ccc(O)cc3)c2O1 (stereo not drawn) [Compound 4, 4-[2-(aminomethyl)-2,3-dihydro-1-benzofuran-7-yl]phenol] | – | – | 100 to 1000 | – |
